Patent US20250213478A1, “CATIONIC LIPID HAVING DISULFIDE BOND, LIPID MEMBRANE STRUCTURE INCLUDING SAME, NUCLEIC ACID INTRODUCTION AGENT AND PHARMACEUTICAL COMPOSITION CONTAINING ANY ONE OF SAME, METHOD FOR INTRODUCING NUCLEIC ACID INTO CELL OR TARGET CELL, AND METHOD FOR PRODUCING CELLULAR PHARMACEUTICAL” (NOF Corporation, priority 2022, published 2025)

Tests used:
HeLa cells = experiment: Evaluation of in vitro gene expression in HeLa cell (luciferase mRNA-encapsulating LNP); format: cell-based, human; conditions: for cumulative luciferase luminescence intensity over 24 hr: luciferase mRNA 0.4 μg per dish, LNP cationic lipid:DOPC:Chol:DMG-PEG2k=55:5:40:1; for gene expression activity compared to Comparative Example: result in words
Experimental: (§1) LNP encapsulating mRNA that expresses luciferase (cationic lipid:DOPC:Chol:DMG-PEG2k=55:5:40:1 (molar ratio)) was prepared by the method described in [Experimental Example 2], 1.
HeLa cells, which are human cervical cancer cells, were seeded in a 3.5 cm dish at 5.0×10^4 cells/2 mL/Dish 24 hours before transfection. After 24 hours, the medium was exchanged with a culture medium (D-MEM) containing 0.1 mM D-luciferin. Prepared mRNA-encapsulating LNP was diluted with PBS such that the concentration of mRNA was about 8 μg/mL. The diluted mRNA-encapsulating LNP solution (about 50 μL, mRNA: 0.4 μg) was added to the 3.5 cm dish and set in an incubator luminometer KronosDio. The luminescence intensity of luciferase was measured for 2 min every one hour. The cumulative luciferase luminescence intensity for 24 hr was calculated from the obtained time change of expression. For example, “1.0E+06” means “1.0×10^6”. In Comparative Example, the cationic lipid described in the aforementioned Table 3 were used.

[1] = Measurement of Liposomal pKa of LNP (TNS fluorescence); format: physicochemical; conditions: LNP without nucleic acid, cationic lipid:DOPC:Chol=52.5:7.5:40 + about 1.5 mol DMG-PEG2k; pH at which relative TNS fluorescence intensity was 50%
Experimental: Lipid nanoparticles (LNP) without containing nucleic acid were used for the evaluation of Liposomal pKa.
(§2) A 10 mM ethanol solution of cationic lipid, a 5 mM ethanol solution of DOPC, and a 10 mM ethanol solution of Chol were mixed at desired ratio (cationic lipid:DOPC:Chol=52.5:7.5:40 (molar ratio)) in an Eppendorf tube to achieve the total lipid amount of 720 nmol. To the obtained mixture was further added DMG-PEG2k (2 mM ethanol solution) in an amount of about 1.5 mol with respect to the total amount 100 mol of cationic lipid, DOPC, and Chol, and then ethanol was added to prepare an ethanol solution of the lipid (total amount: 360 μL).
(§3) An acidic malic acid buffer (20 mM, pH 3.0) (1080 μL) containing NaCl at a final concentration of 30 mM and an ethanol solution (360 μL) of lipid were each weighed in a syringe. Using an ultra high-speed nanomedicament producing apparatus NanoAssmblr (manufactured by Precision NanoSystems), LNP was prepared under the conditions of addition rate of acidic buffer solution: 3 mL/min, addition rate of ethanol solution of lipid: 1 mL/min, and syringe holder temperature: 25° C., and collected in a 15 mL tube. MES buffer (pH 6.5) (3000 μL) was added to the 15 mL tube, the obtained mixture was transferred to Amicon Ultra 4, and ultrafiltration was performed under centrifugation conditions (25° C., 1000 g, 6 min) to concentrate the mixture to about 100 μL. The obtained concentrate was diluted with PBS to 4 mL, and the mixture was concentrated again under centrifugation conditions (25° C., 1000 g, 6 min), and this operation was performed twice. The obtained concentrate was diluted with PBS to a lipid concentration of 0.5 mM to give a dispersion containing LNP.
20 mM Citrate buffer, sodium phosphate buffer, and tris HCl buffer, each containing NaCl at a final concentration of 150 mM and adjusted to various pHs within the range of pH 3.0 to 10.0, were prepared. TNS (manufactured by Sigma) was diluted with ultrapure water to 0.6 mM. TNS solution (2 μL), dispersions (12 μL) containing LNP prepared in [Experimental Example 1], 1., and buffers adjusted to various pHs (186 μL) were added to a black 96 well plate. The plate was protected from light and shaken at 400 rpm for 10 min. The fluorescence intensity (excitation: 321 nm/emission: 447 nm) was measured using a plate reader (manufactured by TECAN). The relative fluorescence intensity was calculated as a percentage, with the maximum value of the fluorescence intensity in each LNP being 100% and the minimum value being 0%. Furthermore, the pH at which the relative fluorescence intensity was 50% was taken as Liposomal pKa. In Comparative Example, the cationic lipid described in the aforementioned Table 3 were used.

[2] = Particle size, PdI and zeta potential of mRNA-encapsulating LNPs (dynamic light scattering); format: physicochemical; conditions: mRNA-encapsulating LNP, cationic lipid:DOPC:Chol=55:5:40 + about 1 mol DMG-PEG2k; for PdI / particle size: dynamic light scattering; for zeta potential: physiological pH
Experimental: as §2, with “lipid:DOPC:Chol=55:5:40” for “lipid:DOPC:Chol=52.5:7.5:40”, “1” for “1.5”
An acidic buffer solution (total amount: 1080 μL) of nucleic acid was prepared by weighing 7.2 μg of mRNA solution (0.6 mg/mL) in a 5 mL tube and adding acidic malate buffer (20 mM, pH 3.0) containing NaCl at a final concentration of 30 mM.
as §3, with “buffer solution of nucleic” for “malic”, “acid” for “acid buffer (20 mM, pH 3.0) (1080 μL) containing NaCl at a final concentration of 30 mM”, “solution” for “solution (360 μL)”, “solution of nucleic acid:” for “solution:”, “2” for “0.5”
The particle size, PdI (Polydispersity Index), and zeta potential of the mRNA-encapsulating LNP prepared by the method of the above-mentioned 1 were measured by a dynamic light scattering method. In Comparative Example, the cationic lipid described in the aforementioned Table 3 were used.

BALB/c mouse = experiment: Evaluation of in vivo gene expression (luciferase mRNA-encapsulating LNP, IVIS of isolated organs)
Experimental: as §1
The prepared each mRNA-encapsulating LNP dispersion was administered from the tail vein of BALB/c mouse (male, 5-week-old). The dose of mRNA was set to 0.05 mg per 1 kg body weight of the mouse, and the dose of the mRNA-encapsulating LNP dispersion was set to 10 μL per 1 g body weight of the mouse. After 4.5 hr from the administration of the mRNA-encapsulating LNP dispersion, a PBS solution of D-luciferin potassium was administered into the abdominal cavity of the mouse. The dose of D-luciferin potassium was set to 3 mg per mouse, and the dose of the PBS solution of D-luciferin potassium was set to 200 μL per mouse. After 15 min from the administration of the PBS solution of D-luciferin potassium, the mouse was euthanized, and the liver, spleen, kidney, heart, and lung were isolated. The luminescence in each organ was quantified using an in vivo imaging system (IVIS) with an exposure of 10 sec. The amount of luminescence in each organ was quantified by image analysis using Live Imaging software attached to IVIS. The amount of luminescence (photons/sec) was calculated from the acquired image and used as an index of gene expression activity. “E+0a” (a: integer) indicated in Table 7 and Table 8 means “10^a”. For example, “1.0E+02” means “1.0×10^2”. In Comparative Example, the cationic lipid described in the aforementioned Table 3 were used.

| Compound | cumulative luciferase luminescence intensity over 24 hr (HeLa cells) | pKa [1] | PdI [2] | particle size [2] | zeta potential [2] | further results |
| --- | --- | --- | --- | --- | --- | --- |
| CCCCCCCC/C=C\CCCCCCCC(=O)Oc1ccc(CC(=O)OCCSSCCOC(=O)CCCN(C)C)cc1OC(=O)CCCCCCC/C=C\CCCCCCCC [Example 15] | 8.22E+07 RLU | 6.3 | 0.112 | 65 nm | 6.0 mV | gene expression activity compared to Comparative Example (HeLa cells): superior gene expression activity |
| CCCCCCCCCCCCCCC(CCCCCCCCCCCCCC)C(=O)Oc1ccc(CC(=O)OCCSSCCOC(=O)CN(C)C)cc1 [Example 3] |  |  | 0.078 | 90 nm | −3.0 mV |  |
| CCCCCCCCCCCCCCCCC(CCCCCCCCCCCCCCCC)C(=O)Oc1ccc(CC(=O)OCCSSCCOC(=O)NCCN(CCCC)CCCC)cc1 [Example 27] | 9.60E+05 RLU | 5.7 |  |  |  |  |
| CCCCCCCCCCCCCCCCC(CCCCCCCCCCCCCCCC)C(=O)Oc1ccc(CC(=O)OCCSSCCOC(=O)/C=C/CN(CC)CCO)cc1 [Example 40] | 2.33E+05 RLU |  | 0.104 | 89 nm | 0.1 mV |  |
| CCCCCCCCCCCCCCCCC(CCCCCCCCCCCCCCCC)C(=O)Oc1ccc(CC(=O)OCCSSCCN(C)C)cc1 [Example 16] |  | 6.4 | 0.067 | 97 nm | −2.5 mV |  |
| CCCCCCCCCCCCCCCCC(CCCCCCCCCCCCCCCC)C(=O)Oc1ccc(CC(=O)OCCCCSSCCCCOC(=O)CCCN(C)C)cc1 [Example 41] |  |  | 0.091 | 80 nm | 4.0 mV |  |
| CCCCCCCC/C=C\CCCCCCCC(=O)Oc1ccc(CC(=O)OCCSSCCOC(=O)CN(C)C)cc1OC(=O)CCCCCCC/C=C\CCCCCCCC [Example 14] |  |  | 0.071 | 67 nm | −4.1 mV |  |
| CCCCCCCCCCCCCCCCC(CCCCCCCCCCCCCCCC)C(=O)Oc1ccc(CC(=O)OCCSSCCOC(=O)/C=C/CN(C)C)cc1 [Example 38] | 1.31E+05 RLU |  | 0.106 | 106 nm | −3.8 mV |  |
| CCCCCCCCCCCCCCCC(=O)OCC(C)(COC(=O)CCCCCCCCCCCCCCC)C(=O)Oc1ccc(CC(=O)OCCSSCCOC(=O)NCCN(CC)CC)cc1 [Example 32] | 8.77E+07 RLU | 7.2 |  |  |  | gene expression activity compared to Comparative Example (HeLa cells): superior gene expression activity |
| CCCCCCCCCCCCCCCCCC(=O)OCC(C)(COC(=O)CCCCCCCCCCCCCCCCC)C(=O)Oc1ccc(CC(=O)OCCSSCCOC(=O)NCCN(CC)CC)cc1 [Example 33] | 5.38E+06 RLU | 7.1 |  |  |  |  |
| CCCCCCCCC(CCCCCC)C(=O)Oc1ccc(CC(=O)OCCSSCCOC(=O)CN(C)C)cc1 (stereo not shown) [Example 1] |  | 5.7 | 0.072 | 82 nm | −3.4 mV |  |
| CCCCCCCCCCC(CCCCCCCCCC)C(=O)Oc1ccc(CC(=O)OCCSSCCOC(=O)CN(C)C)cc1 [Example 2] |  | 5.7 | 0.072 | 84 nm | −2.9 mV |  |
| CCCCCCCCCCCCCCCCC(CCCCCCCCCCCCCCCC)C(=O)Oc1ccc(CC(=O)OCCSSCCOC(=O)/C=C/CN(CC)CC)cc1 [Example 39] | 3.95E+04 RLU |  | 0.128 | 107 nm | −5.3 mV |  |
| CCCCCCCC/C=C\CCCCCCCC(=O)Oc1ccc(CC(=O)OCC(C)(COC(=O)Cc2ccc(OC(=O)CCCCCCC/C=C\CCCCCCCC)cc2)C(=O)OCCSSCCOC(=O)NCCN(CC)CC)cc1 [Example 42] | 3.62E+07 RLU | 7.3 |  |  |  | gene expression activity compared to Comparative Example (HeLa cells): superior gene expression activity |
| CCCCCCCCCCCCCCCCC(CCCCCCCCCCCCCCCC)C(=O)Oc1ccc(CC(=O)NCCSSCCNC(=O)CCCN(C)C)cc1 [Example 20] |  | 8.8 |  |  |  | relative value based on Comparative Example (amount of luminescence in spleen) (BALB/c mouse; spleen, relative to O-Ph-P4C2 LNP = 1.00): 0.05; amount of luminescence in each organ: heart (BALB/c mouse; tail vein, mRNA 0.05 mg/kg, 4.5 hr + 15 min after administration, heart): 6.26E+05 photons/sec; amount of luminescence in each organ: kidney (BALB/c mouse; tail vein, mRNA 0.05 mg/kg, 4.5 hr + 15 min after administration, kidney): 4.34E+05 photons/sec; amount of luminescence in each organ: liver (BALB/c mouse; tail vein, mRNA 0.05 mg/kg, 4.5 hr + 15 min after administration, liver): 4.95E+05 photons/sec; amount of luminescence in each organ: lung (BALB/c mouse; tail vein, mRNA 0.05 mg/kg, 4.5 hr + 15 min after administration, lung): 3.68E+05 photons/sec; amount of luminescence in each organ: spleen (BALB/c mouse; tail vein, mRNA 0.05 mg/kg, 4.5 hr + 15 min after administration, spleen (Table 7)): 5.18E+05 photons/sec |
| CCCCCCCCCCCCCCCCC(CCCCCCCCCCCCCCCC)C(=O)Oc1ccc(CC(=O)OCCSSCCOC(=O)NCCN2CCOCC2)cc1 [Example 26] | 3.29E+05 RLU | 5.7 |  |  |  |  |
